Assay results from PMC11369877 (Therapeutic Advances in Medical Oncology, 2024).

What was measured:
[1] = human, in vivo
Asian patients = details: palbociclib plus letrozole, PALOMA-4 trial; cited from earlier work

geometric mean Rac,AUC [1] | SMILES | neutropenia, grade 3 (Asian patients) | neutropenia, grade 4 (Asian patients)
3.66–4.15 | CC(C)(C#N)c1cc(Cn2cncn2)cc(C(C)(C)C#N)c1 [anastrozole] |  | 
6.25–6.41 | N#Cc1ccc(C(c2ccc(C#N)cc2)n2cncn2)cc1 [letrozole] |  | 
 | CC(=O)c1c(C)c2cnc(Nc3ccc(N4CCNCC4)cn3)nc2n(C2CCCC2)c1=O [palbociclib] | 72% | 12.5%
